{"source": "the supplement of paper PMC10307832", "experiment_in_all_cases": "relative viability (nuclei count vs DMSO), 5 days (fraction); higher = more cells survive", "key": {"[1]": {"test_system": "NCI-H1993", "in_short": "(§1)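 Lung cancer cell lines, seeded in 1536-well plates, were treated the following day by pin tool with a single drug or with five library-drug doses (not always all listed) in √10 steps on top of a fixed anchor-drug dose. Cells were fixed and nuclei stained in one step after 5 days, and nuclei were counted. Relative viability is the nuclei count for treated wells divided by that for vehicle wells, reported as medians of duplicate plates.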"}, "[2]": {"test_system": "HARA", "in_short": "as §1"}, "[3]": {"test_system": "COR-L 105", "in_short": "as §1"}, "[4]": {"test_system": "NCI-H2087", "in_short": "as §1"}, "[5]": {"test_system": "LU99A", "in_short": "as §1"}, "[6]": {"test_system": "HOP-62", "in_short": "as §1"}, "[7]": {"test_system": "NCI-H1395", "in_short": "as §1"}, "[8]": {"test_system": "RERF-LC-KJ", "in_short": "as §1"}, "[9]": {"test_system": "SW 900", "in_short": "as §1"}, "[10]": {"test_system": "NCI-H2126", "in_short": "as §1"}, "[11]": {"test_system": "EMC-BAC-2", "in_short": "as §1"}, "[12]": {"test_system": "LC-2-ad", "in_short": "as §1"}, "[13]": {"test_system": "NCI-H650", "in_short": "as §1"}, "[14]": {"test_system": "SK-MES-1", "in_short": "as §1"}, "[15]": {"test_system": "LOU-NH91", "in_short": "as §1"}, "[16]": {"test_system": "201T", "in_short": "as §1"}, "[17]": {"test_system": "LXF-289", "in_short": "as §1"}, "[18]": {"test_system": "HCC-78", "in_short": "as §1"}, "[19]": {"test_system": "NCI-H2170", "in_short": "as §1"}, "[20]": {"test_system": "H3255", "in_short": "as §1"}, "[21]": {"test_system": "BEN", "in_short": "as §1"}, "[22]": {"test_system": "UMC-11", "in_short": "as §1"}}}
{"molecule": "Cc1csc(=NC2CCCCC2)n1/N=C/c1ccc(O)c(O)c1O", "note": "[MIM1] + CC(=O)Nc1cccc(-n2c(=O)n(C3CC3)c(=O)c3c(Nc4ccc(I)cc4F)n(C)c(=O)c(C)c32)c1 [Trametinib] (partner 0.02 µM)", "values": [{"measurement": "relative viability", "setting": "[1]; first compound 0.2 µM", "value": 0.433}, {"measurement": "relative viability", "setting": "[1]; first compound 0.6325 µM", "value": 0.43}, {"measurement": "relative viability", "setting": "[1]; first compound 2 µM", "value": 0.511}, {"measurement": "relative viability", "setting": "[1]; first compound 6.325 µM", "value": 0.448}, {"measurement": "relative viability", "setting": "[1]; first compound 20 µM", "value": 0.351}, {"measurement": "relative viability", "setting": "[2]; first compound 0.2 µM", "value": 0.707}, {"measurement": "relative viability", "setting": "[2]; first compound 0.6325 µM", "value": 0.608}, {"measurement": "relative viability", "setting": "[2]; first compound 2 µM", "value": 0.641}, {"measurement": "relative viability", "setting": "[2]; first compound 6.325 µM", "value": 0.216}, {"measurement": "relative viability", "setting": "[2]; first compound 20 µM", "value": 0.173}, {"measurement": "relative viability", "setting": "[3]; first compound 0.2 µM", "value": 0.45}, {"measurement": "relative viability", "setting": "[3]; first compound 0.6325 µM", "value": 0.548}, {"measurement": "relative viability", "setting": "[3]; first compound 2 µM", "value": 0.44}, {"measurement": "relative viability", "setting": "[3]; first compound 6.325 µM", "value": 0.406}, {"measurement": "relative viability", "setting": "[3]; first compound 20 µM", "value": 0.439}, {"measurement": "relative viability", "setting": "[4]; first compound 0.2 µM", "value": 0.293}, {"measurement": "relative viability", "setting": "[4]; first compound 0.6325 µM", "value": 0.227}, {"measurement": "relative viability", "setting": "[4]; first compound 2 µM", "value": 0.197}, {"measurement": "relative viability", "setting": "[4]; first compound 6.325 µM", "value": 0.175}, {"measurement": "relative viability", "setting": "[4]; first compound 20 µM", "value": 0.202}, {"measurement": "relative viability", "setting": "[5]; first compound 0.2 µM", "value": 0.571}, {"measurement": "relative viability", "setting": "[5]; first compound 0.6325 µM", "value": 0.611}, {"measurement": "relative viability", "setting": "[5]; first compound 2 µM", "value": 0.604}, {"measurement": "relative viability", "setting": "[5]; first compound 6.325 µM", "value": 0.469}, {"measurement": "relative viability", "setting": "[5]; first compound 20 µM", "value": 0.164}, {"measurement": "relative viability", "setting": "[6]; first compound 0.2 µM", "value": 0.386}, {"measurement": "relative viability", "setting": "[6]; first compound 0.6325 µM", "value": 0.417}, {"measurement": "relative viability", "setting": "[6]; first compound 2 µM", "value": 0.379}, {"measurement": "relative viability", "setting": "[6]; first compound 6.325 µM", "value": 0.344}, {"measurement": "relative viability", "setting": "[6]; first compound 20 µM", "value": 0.266}, {"measurement": "relative viability", "setting": "[7]; first compound 0.2 µM", "value": 0.976}, {"measurement": "relative viability", "setting": "[7]; first compound 0.6325 µM", "value": 1.04}, {"measurement": "relative viability", "setting": "[7]; first compound 2 µM", "value": 0.937}, {"measurement": "relative viability", "setting": "[7]; first compound 6.325 µM", "value": 0.812}, {"measurement": "relative viability", "setting": "[7]; first compound 20 µM", "value": 0.54}, {"measurement": "relative viability", "setting": "[8]; first compound 0.2 µM", "value": 0.832}, {"measurement": "relative viability", "setting": "[8]; first compound 0.6325 µM", "value": 0.801}, {"measurement": "relative viability", "setting": "[8]; first compound 2 µM", "value": 0.666}, {"measurement": "relative viability", "setting": "[8]; first compound 6.325 µM", "value": 0.56}, {"measurement": "relative viability", "setting": "[8]; first compound 20 µM", "value": 0.3}, {"measurement": "relative viability", "setting": "[9]; first compound 0.2 µM", "value": 0.831}, {"measurement": "relative viability", "setting": "[9]; first compound 0.6325 µM", "value": 0.886}, {"measurement": "relative viability", "setting": "[9]; first compound 2 µM", "value": 0.718}, {"measurement": "relative viability", "setting": "[9]; first compound 6.325 µM", "value": 0.196}, {"measurement": "relative viability", "setting": "[9]; first compound 20 µM", "value": 0.21}, {"measurement": "relative viability", "setting": "[10]; first compound 0.2 µM", "value": 0.553}, {"measurement": "relative viability", "setting": "[10]; first compound 0.6325 µM", "value": 0.579}, {"measurement": "relative viability", "setting": "[10]; first compound 2 µM", "value": 0.598}, {"measurement": "relative viability", "setting": "[10]; first compound 6.325 µM", "value": 0.503}, {"measurement": "relative viability", "setting": "[10]; first compound 20 µM", "value": 0.388}, {"measurement": "relative viability", "setting": "[11]; first compound 0.2 µM", "value": 0.889}, {"measurement": "relative viability", "setting": "[11]; first compound 0.6325 µM", "value": 0.799}, {"measurement": "relative viability", "setting": "[11]; first compound 2 µM", "value": 0.702}, {"measurement": "relative viability", "setting": "[11]; first compound 6.325 µM", "value": 0.73}, {"measurement": "relative viability", "setting": "[11]; first compound 20 µM", "value": 0.355}, {"measurement": "relative viability", "setting": "[12]; first compound 0.2 µM", "value": 0.904}, {"measurement": "relative viability", "setting": "[12]; first compound 0.6325 µM", "value": 0.941}, {"measurement": "relative viability", "setting": "[12]; first compound 2 µM", "value": 0.913}, {"measurement": "relative viability", "setting": "[12]; first compound 6.325 µM", "value": 0.529}, {"measurement": "relative viability", "setting": "[12]; first compound 20 µM", "value": 0.739}, {"measurement": "relative viability", "setting": "[13]; first compound 0.2 µM", "value": 1.02}, {"measurement": "relative viability", "setting": "[13]; first compound 0.6325 µM", "value": 0.946}, {"measurement": "relative viability", "setting": "[13]; first compound 2 µM", "value": 1.07}, {"measurement": "relative viability", "setting": "[13]; first compound 6.325 µM", "value": 0.939}, {"measurement": "relative viability", "setting": "[13]; first compound 20 µM", "value": 0.647}, {"measurement": "relative viability", "setting": "[14]; first compound 0.2 µM", "value": 0.569}, {"measurement": "relative viability", "setting": "[14]; first compound 0.6325 µM", "value": 0.601}, {"measurement": "relative viability", "setting": "[14]; first compound 2 µM", "value": 0.58}, {"measurement": "relative viability", "setting": "[14]; first compound 6.325 µM", "value": 0.518}, {"measurement": "relative viability", "setting": "[14]; first compound 20 µM", "value": 0.514}, {"measurement": "relative viability", "setting": "[15]; first compound 0.2 µM", "value": 0.795}, {"measurement": "relative viability", "setting": "[15]; first compound 0.6325 µM", "value": 0.839}, {"measurement": "relative viability", "setting": "[15]; first compound 2 µM", "value": 0.646}, {"measurement": "relative viability", "setting": "[15]; first compound 6.325 µM", "value": 0.7}, {"measurement": "relative viability", "setting": "[15]; first compound 20 µM", "value": 0.349}, {"measurement": "relative viability", "setting": "[16]; first compound 0.2 µM", "value": 0.704}, {"measurement": "relative viability", "setting": "[16]; first compound 0.6325 µM", "value": 0.701}, {"measurement": "relative viability", "setting": "[16]; first compound 2 µM", "value": 0.736}, {"measurement": "relative viability", "setting": "[16]; first compound 6.325 µM", "value": 0.605}, {"measurement": "relative viability", "setting": "[16]; first compound 20 µM", "value": 0.761}, {"measurement": "relative viability", "setting": "[17]; first compound 0.2 µM", "value": 0.625}, {"measurement": "relative viability", "setting": "[17]; first compound 0.6325 µM", "value": 0.664}, {"measurement": "relative viability", "setting": "[17]; first compound 2 µM", "value": 0.705}, {"measurement": "relative viability", "setting": "[17]; first compound 6.325 µM", "value": 0.607}, {"measurement": "relative viability", "setting": "[17]; first compound 20 µM", "value": 0.221}, {"measurement": "relative viability", "setting": "[18]; first compound 0.2 µM", "value": 0.75}, {"measurement": "relative viability", "setting": "[18]; first compound 2 µM", "value": 0.778}, {"measurement": "relative viability", "setting": "[18]; first compound 6.325 µM", "value": 0.556}, {"measurement": "relative viability", "setting": "[18]; first compound 20 µM", "value": 1.15}, {"measurement": "relative viability", "setting": "[19]; first compound 0.2 µM", "value": 0.859}, {"measurement": "relative viability", "setting": "[19]; first compound 0.6325 µM", "value": 1.01}, {"measurement": "relative viability", "setting": "[19]; first compound 2 µM", "value": 0.914}, {"measurement": "relative viability", "setting": "[19]; first compound 6.325 µM", "value": 0.609}, {"measurement": "relative viability", "setting": "[19]; first compound 20 µM", "value": 0.368}, {"measurement": "relative viability", "setting": "[20]; first compound 0.2 µM", "value": 0.578}, {"measurement": "relative viability", "setting": "[20]; first compound 0.6325 µM", "value": 0.618}, {"measurement": "relative viability", "setting": "[20]; first compound 2 µM", "value": 0.56}, {"measurement": "relative viability", "setting": "[20]; first compound 6.325 µM", "value": 0.529}, {"measurement": "relative viability", "setting": "[20]; first compound 20 µM", "value": 0.293}, {"measurement": "relative viability", "setting": "[21]; first compound 0.2 µM", "value": 1.22}, {"measurement": "relative viability", "setting": "[21]; first compound 0.6325 µM", "value": 1.1}, {"measurement": "relative viability", "setting": "[21]; first compound 2 µM", "value": 1.03}, {"measurement": "relative viability", "setting": "[21]; first compound 6.325 µM", "value": 1.1}, {"measurement": "relative viability", "setting": "[21]; first compound 20 µM", "value": 0.578}, {"measurement": "relative viability", "setting": "[22]; first compound 0.2 µM", "value": 0.724}, {"measurement": "relative viability", "setting": "[22]; first compound 0.6325 µM", "value": 0.267}, {"measurement": "relative viability", "setting": "[22]; first compound 2 µM", "value": 0.751}, {"measurement": "relative viability", "setting": "[22]; first compound 6.325 µM", "value": 0.475}, {"measurement": "relative viability", "setting": "[22]; first compound 20 µM", "value": 0.156}]}
